Experiments:
[1] = tested on: Huh7 cells (human hepatoma cell line); experiment: Cellular iron concentration in iron-preloaded Huh7 cells; type: cell-based; details: Huh7 preloaded 24 hours with 50 μM FAC, then 0.5 mM test substance for 24 hours, N=4
Experimental: FIG. 5: Control Huh7 cells (human hepatoma cell line) were preloaded for 24 hours with 50 μM FAC. The cells were then treated with 0.5 mM MB-SB2, 0.5 mM MB-OB3b and 0.5 mM DFO for 24 hours. […] Statistical analysis was done by One-way ANOVA (N=4).

LPP Atp7b^−/− rats = experiment: Fecal iron excretion after intraperitoneal injection; type: in vivo, rat; details: i.p. twice a day for four days, 110 mg/kg bw MB-SB2 or 150 mg/kg bw MB-OB3b, ICP-OES
Experimental: LPP Atp7b^−/− rats were injected intraperitoneally (i.p.) twice a day for four consecutive days with either 110 mg/kg bw MB-SB2 or 150 mg/kg bw MB-OB3b. Rats were housed individually in metabolic cages for 4 days. Feces of each rat was collected in 24-hour periods at 24, 48, 72 and 96 hours after treatment start. Feces was separated from chow residues, dried, homogenized by grinding or milling and digested with concentrated HNO3 and iron content determined with inductively coupled plasma optical emission spectrometry (ICP-OES).

[2] = tested on: livers from LPP Atp7b^−/− rats; experiment: Liver perfusion experiments, biliary iron excretion; design: species or system rat; details: liver perfusion one hour at 37° C., 35 μmol methanobactin, ICP-OES
Experimental: Cannulated livers from LPP Atp7b^−/− rats were perfused for one hour at 37° C. with Krebs-Ringer bicarbonate solution, gassed with 95% O2 and 5% CO2, and MB-SB2 or MB-OB3b (35 μmol). During perfusion total bile was collected in 10-minute intervals. Biliary iron concentrations were determined by inductively coupled plasma optical emission spectrometry (ICP-OES) as described (Lichtmannegger et al. J Clin Invest, 2016, 126, 2721-2735).

Q: Which results are given for `CC(NC(=O)C(C)NC(=S)C1N=C(C(NC(=O)C(CO)NC(=O)C(C)NC(=S)C2N=C(C(=O)CCCNC(=N)N)NC2=O)C(C)OS(=O)(=O)O)OC1=O)C(=O)O` (stereo not drawn) [MB-SB2]?
A: Cellular iron concentration [1]: significantly reduces cellular iron concentration in iron-preloaded Huh7 cells to the untreated level; Fecal iron excretion (LPP Atp7b^−/− rats): excrete iron in feces; Biliary iron excretion [2]: brings iron to the bile

Reference: US20240131112A1, “USE OF METHANOBACTIN FOR TREATMENT OF IRON-RELATED DISEASES” (Helmholtz Zentrum Muenchen - Deutsches Forschungszentrum …, priority 2021, published 2024)
